Where two headings read alike, the source gives them in different places.
Molecular target: T1, LmxCLK1 (Leishmania mexicana, UniProt E9AMP2)
T1 sequence (E9AMP2 1-422): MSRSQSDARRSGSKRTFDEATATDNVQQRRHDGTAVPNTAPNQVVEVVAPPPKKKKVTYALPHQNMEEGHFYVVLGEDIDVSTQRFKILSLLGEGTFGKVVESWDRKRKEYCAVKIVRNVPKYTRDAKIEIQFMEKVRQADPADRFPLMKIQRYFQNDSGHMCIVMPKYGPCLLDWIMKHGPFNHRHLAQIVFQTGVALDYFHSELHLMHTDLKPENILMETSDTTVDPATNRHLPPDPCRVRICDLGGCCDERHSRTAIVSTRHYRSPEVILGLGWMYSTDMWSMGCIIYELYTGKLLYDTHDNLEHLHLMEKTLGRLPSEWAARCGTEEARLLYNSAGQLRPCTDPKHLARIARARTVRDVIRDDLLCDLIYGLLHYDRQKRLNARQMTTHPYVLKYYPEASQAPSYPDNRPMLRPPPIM
Assay: biochemical
Assay type: binding

[1] = DSF, 10 µM compound, 2 µM LmxCLK1, Run 1, read-out: ΔTm Run 1
[2] = DSF, 10 µM compound, 2 µM LmxCLK1, Run 2, read-out: ΔTm Run 2
[3] = DSF, 10 µM compound, 2 µM LmxCLK1, mean of two runs, read-out: ΔTm Average
[4] = DSF, 10 µM compound, 2 µM LmxCLK1, Run 1
[5] = DSF, 10 µM compound, 2 µM LmxCLK1, Run 2
[6] = DSF, 10 µM compound, 2 µM LmxCLK1, mean of two runs

SMILES	ΔTm at 10 µM [1] [°C]	ΔTm at 10 µM [2] [°C]	ΔTm at 10 µM [3] [°C]	ΔTm Run 1 [4] [°C]	ΔTm Run 2 [5] [°C]	ΔTm Average [6] [°C]	also measured
Cc1cc(Nc2nc(N[C@@H](C)c3ccc(F)cc3)c(C#N)cc2F)[nH]n1 [AZ 960]	0.3	0.3	0.3	–	–	–	–
Cc1cc(F)c(Nc2ncnc3cc(OCc4ccccc4)ccc23)cc1O.Cl [ZM 323881 HCl]	–	–	–	0.1	0.0	0.0	–
Cc1cnc(Nc2ccc(N3CCN(C)CC3)cc2)nc1Nc1cccc(S(=O)(=O)NC(C)(C)C)c1 [TG101209]	–	–	–	0.2	-0.3	0.0	–
CN1CCN(c2ccc(OC(F)(F)F)c(Nc3ncc4c(n3)-c3c(c(C(N)=O)nn3CCO)CC4)c2)CC1 [NMS-P937 (NMS1286937)]	–	–	–	0.0	0.0	0.0	–
Oc1c2ccccc2c2c3c(cccc13)N=N2 [SP600125]	0.1	-0.3	-0.1	–	–	–	–
CCCS(=O)(=O)Nc1ccc(F)c(C(=O)c2c[nH]c3ncc(-c4ccc(Cl)cc4)cc23)c1F [Vemurafenib (PLX4032)]	–	–	–	-0.1	-0.1	-0.1	–
N#C/C(=C(/N)Sc1ccc(N)cc1)c1ccccc1C(F)(F)F [SL-327]	–	–	–	-0.2	-0.2	-0.2	–
CNc1nc(-c2ccc3c(N)n[nH]c3c2)cc(N2C[C@@H](C(=O)NC3CCCCC3)CC[C@H]2C)n1 [GSK2334470]	0.3	-0.5	-0.1	–	–	–	–
CC(C)CCN1c2nc(Nc3cc(F)c(O)c(F)c3)ncc2N(C)C(=O)C1C (stereo not drawn) [BI-D1870]	–	–	–	0.4	0.0	0.2	–
CN1CCN(c2ccc3nc(-c4c(N)c5c(F)cccc5[nH]c4=O)[nH]c3c2)CC1 [Dovitinib (TKI-258)]	–	–	–	0.5	0.2	0.3	–
CC(C)c1cnn2c(NCc3ccccc3)cc(NCCCCCCN)nc12.Cl [BS-181 HCl]	–	–	–	-0.3	-0.2	-0.3	–
CC(C)(C)c1cc(C=C(C#N)C#N)cc(Br)c1O [AG-1024]	–	–	–	0.0	-0.2	-0.1	–
C=CC(=O)Nc1cccc(Nc2nc(Nc3ccc(OCCOC)cc3)ncc2F)c1 [AVL-292]	0	-0.2	-0.1	–	–	–	–
O=C(NOCC(O)CO)c1cc(Br)c(F)c(F)c1Nc1ccc(I)cc1F (stereo not drawn) [PD318088]	–	–	–	0.4	0.1	0.2	–
OCCn1cc(-c2ccc3c(c2)CC/C3=N\O)c(-c2ccncc2)n1 [GDC-0879]	0	-0.2	-0.1	–	–	–	–
Cn1c(Nc2ccc(C(F)(F)F)cc2)nc2cc(Oc3ccnc(-c4ncc(C(F)(F)F)[nH]4)c3)ccc21 [RAF265 (CHIR-265)]	–	–	–	-0.1	-0.3	-0.2	–
CNC(=O)c1ccccc1Sc1ccc2c(/C=C/c3ccccn3)n[nH]c2c1 [Axitinib]	0.6	0.4	0.5	–	–	–	–
CC(C)CC(=O)Nc1[nH]nc2c1CN(C(=O)C1CCN(C)CC1)C2(C)C [PHA-793887]	0.1	0	0.1	–	–	–	–
O=C(NC(NC(=S)Nc1ccc(F)c([N+](=O)[O-])c1)C(Cl)(Cl)Cl)C(c1ccccc1)c1ccccc1 (stereo not drawn) [CGK 733]	–	–	–	-0.6	0.0	-0.3	–
CO[C@H]1C[C@@H]2CC[C@@H](C)[C@@](O)(O2)C(=O)C(=O)N2CCCC[C@H]2C(=O)O[C@H]([C@H](C)C[C@@H]2CC[C@@H](OCCO)[C@H](OC)C2)CC(=O)[C@H](C)/C=C(\C)[C@@H](O)[C@@H](OC)C(=O)[C@H](C)C[C@H](C)/C=C/C=C/C=C/1C [Everolimus (RAD001)]	–	–	–	0.2	-0.2	0.0	–
Cc1ccc(-c2nn(C(C)(C)C)c3ncnc(N)c23)cc1 [PP1]	–	–	–	–	–	–	ΔTm Average: 0 °C; ΔTm Run 1: 0.2 °C; ΔTm Run 2: -0.2
N#CC[C@H](C1CCCC1)n1cc(-c2ncnc3[nH]ccc23)cn1 [Ruxolitinib (INCB018424)]	0.9	1.1	1	–	–	–	–
CNC(=O)c1cc(Oc2ccc(NC(=O)Nc3ccc(Cl)c(C(F)(F)F)c3)cc2)ccn1 [Sorafenib]	–	–	–	-0.3	0.2	-0.1	–

SMILES	ΔTm at 10 µM [1] [°C]	ΔTm at 10 µM [2] [°C]	ΔTm at 10 µM [3] [°C]	ΔTm Run 1 [4] [°C]	ΔTm Run 2 [5] [°C]	ΔTm Average [6] [°C]	also measured
Cc1[nH]c(/C=C2\C(=O)Nc3ccc(S(=O)(=O)Cc4c(Cl)cccc4Cl)cc32)c(C)c1C(=O)N1CCC[C@@H]1CN1CCCC1 [PHA-665752]	0.1	0.1	0.1	–	–	–	–
C=CC(=O)Nc1cccc(Oc2nc(Nc3ccc(N4CCN(C)CC4)cc3OC)ncc2Cl)c1 [WZ4002]	-0.1	-0.3	-0.2	–	–	–	–
C[C@@H](Oc1cc(-n2cnc3ccc(CN4CCN(C)CC4)cc32)sc1C(N)=O)c1ccccc1C(F)(F)F [GSK461364]	0.6	0.1	0.4	–	–	–	–
O=C(c1cccc(Cl)c1F)N1CCN(Cc2cccc(Nc3nccs3)n2)CC1 [MK-8745]	–	–	–	1.1	1.0	1.0	–
COc1cc(Nc2ncc(F)c(Nc3ccc4c(n3)NC(=O)C(C)(C)O4)n2)cc(OC)c1OC [R406 (free base)]	–	–	–	0.0	0.0	0.0	–
O=C(O)c1ccc(Nc2ncc3c(n2)-c2ccc(Cl)cc2C(c2c(F)cccc2F)=NC3)cc1 [MLN8054]	0.3	0.1	0.2	–	–	–	–
CNC(=O)c1c(F)cccc1Nc1nc(Nc2cc3c(cc2OC)CCN3C(=O)CN(C)C)nc2[nH]ccc12 [GSK1838705A]	–	–	–	–	–	–	ΔTm Average: -0.2; ΔTm Run 1: -0.1; ΔTm Run 2: -0.3
CS(=O)(=O)N1CCN(Cc2cc3nc(-c4cccc5[nH]ncc45)nc(N4CCOCC4)c3s2)CC1 [GDC-0941]	0.1	0	0.1	–	–	–	–
C[C@]1(O)C[C@@H](c2nc(-c3ccc4ccc(-c5ccccc5)nc4c3)c3c(N)nccn32)C1 [OSI-906 (Linsitinib)]	–	–	–	0.0	-0.3	-0.2	–
CN1CCN(c2cccc(Nc3nc4c(-c5ccc(S(C)(=O)=O)cc5)cccn4n3)c2)CC1 [CEP-33779]	–	–	–	0.5	0.5	0.5	–
COc1cc2c(N3CCN(C(=O)Nc4ccc(OC(C)C)cc4)CC3)ncnc2cc1OCCCN1CCCCC1 [Tandutinib (MLN518)]	–	–	–	0.1	-0.1	0.0	–
CN(C)c1ccc(-c2nc3ncc(Cl)c(N4CCN(CC(=O)Nc5nccs5)CC4)c3[nH]2)cc1 [CCT129202]	–	–	–	-0.1	0.0	0.0	–
Cc1c(CN2CCN(C(=O)[C@H](C)O)CC2)sc2c(N3CCOCC3)nc(-c3cnc(N)nc3)nc12 [GDC-0980 (RG7422)]	0.1	-0.1	0	–	–	–	–
CCCCOc1c(C(=O)c2c(F)cc(C)cc2F)c[nH]c2nncc1-2 [BMS-265246]	-0.1	-0.3	-0.2	–	–	–	–
CN(c1ncccc1CNc1nc(Nc2ccc3c(c2)CC(=O)N3)ncc1C(F)(F)F)S(C)(=O)=O [PF-00562271]	–	–	–	–	–	–	ΔTm Average: -0.1; ΔTm Run 1: 0 °C; ΔTm Run 2: -0.3
Nc1nc(N)c2nc(-c3cccc(O)c3)cnc2n1 [TG100713]	–	–	–	–	–	–	ΔTm Average: -0.1; ΔTm Run 1: 0.1 °C; ΔTm Run 2: -0.2
Cn1cnc2c(F)c(Nc3ccc(Br)cc3Cl)c(C(=O)NOCCO)cc21 [Selumetinib (AZD6244)]	0.3	0.3	0.3	–	–	–	–
CCn1c(-c2nonc2N)nc2c(C#CC(C)(C)O)ncc(OC[C@H]3CCCNC3)c21 [GSK690693]	0.1	-0.3	-0.1	–	–	–	–
COc1ccc(-c2ccc3ncc4c(c3c2)n(-c2ccc(N3CCNCC3)c(C(F)(F)F)c2)c(=O)n4C)cn1 [BGT226 (NVP-BGT226)]	–	–	–	0.9	0.7	0.8	–
COc1cc2nccc(Oc3ccc(NC(=O)NC4CC4)c(Cl)c3)c2cc1C(N)=O [Lenvatinib (E7080)]	–	–	–	-0.1	-0.4	-0.3	–
Cn1cc(-c2ccc3nnc(Sc4ccc5ncccc5c4)n3n2)cn1 [SGX-523]	-0.1	-0.2	-0.1	–	–	–	–
Cl.Cl.Clc1ccc(Nc2nnc(Cc3ccncc3)c3ccccc23)cc1 [Vatalanib (PTK787) 2HCl]	–	–	–	-0.2	0.0	-0.1	–
CS(=O)(=O)O.Cn1cc(C2=C(c3cn(CCCSC(=N)N)c4ccccc34)C(=O)NC2=O)c2ccccc21 [Ro 31-8220 Mesylate]	–	–	–	1.1	1.6	1.3	–
